PubChem BioAssay AID1996
Converted amounts (≈) assume the structure as drawn.

Details: buffer; pH 7.4; 200.0 µM

| Structure (SMILES) | solubility kinetic |
| --- | --- |
| CC1(C)c2ccccc2N(CC(N)=O)C12C=Cc1ccccc1O2 (stereo unspecified) | 12.6 µg/mL (≈ 39.3 µM) |
| CCN(Cc1ccccc1)Cc1nc(CCc2ccccc2)no1 | 1.4 µg/mL (≈ 4.36 µM) |
| CC1Sc2ccc(C(=O)NCc3ccccc3Cl)cc2NC1=O (stereo unspecified) | 4.1 µg/mL (≈ 11.8 µM) |
| Cl.c1cncc(CNc2ncnc3sc4c(c23)CCC4)c1 | 7.5 µg/mL |
| O=C(CN1C(=O)NC(CCc2ccccc2)C1=O)Nc1cccc(Br)c1 (stereo unspecified) | 5.2 µg/mL (≈ 12.5 µM) |
| CCOC(=O)Cc1csc(NC(=O)Nc2cccc(OC)c2)n1 | 5.8 µg/mL (≈ 17.3 µM) |
| COc1cccc(OC)c1C(=O)N1CCNCC1.O=C(O)C(=O)O | 49.7 µg/mL |
| CC(=O)Nc1ccc(C(=O)OCC(=O)N2CC3(C)CC2CC(C)(C)C3)cc1 (stereo unspecified) | 15.6 µg/mL (≈ 41.9 µM) |
| COc1ccc(-c2cn(-c3ccccc3)c(=S)[nH]2)cc1OC | 22.6 µg/mL (≈ 72.3 µM) |
| CCCn1c(=S)[nH]c2cc(Cl)ccc21 | 32.3 µg/mL (≈ 142 µM) |
| COc1ccc(OC)c([C@@H](O)[C@H](C)NC(C)(C)C)c1.Cl | > 45.6 µg/mL |
| Cc1cccc(OCC(=O)Nc2ccc3nc(C)sc3c2)c1 | 1.8 µg/mL (≈ 5.76 µM) |
| Cc1csc(NC(=O)CSc2nncs2)n1 | > 40.9 µg/mL |
| COc1ccc(NC(=O)/C=C/c2ccc(OC(F)F)cc2)cn1 | 2 µg/mL (≈ 6.24 µM) |
| Cn1ncc(Cl)c1C(=O)NC1CCCC1 | > 34.2 µg/mL |
| COc1cccc(N(CC(=O)N2CCOCC2)S(C)(=O)=O)c1 | > 49.3 µg/mL |
| Cc1ccccc1OCC(=O)Nc1ccccc1-c1ccccc1 | < 0.7 µg/mL |
| CC(=O)c1ccc(N2CCN(C(=O)CCc3ccccc3)CC2)cc1 | > 50.5 µg/mL |
| Cc1csc(NC(=O)c2ccc(Br)s2)n1 | 24.9 µg/mL (≈ 82.1 µM) |
| CCCn1c(N)c(N2CCCCC2)c(=O)n(CC(=O)Nc2cccc(S(=O)(=O)N(C)C)c2)c1=O | 68.3 µg/mL (≈ 139 µM) |
| CC(C)(C)NC(=O)NC(=O)COC(=O)Cc1c(F)cccc1Cl | 15.6 µg/mL (≈ 45.2 µM) |
| CCc1cc(=O)[nH]c(SCCc2ccccc2)n1 | > 39.1 µg/mL |
| S=C(Nc1ccccc1)N1CCN(C/C=C/c2ccccc2)CC1 | > 50.6 µg/mL |
| COc1cc(/C=C/C(=O)OCC(=O)NCc2ccc(F)cc2)ccc1O | > 53.9 µg/mL |
| O=C(O)c1c(N2CCCCC2)ccc([N+](=O)[O-])c1N1CCCCC1 | 46.4 µg/mL (≈ 139 µM) |

| Structure (SMILES) | solubility kinetic |
| --- | --- |
| CCC(C)(CC(=O)Nc1nccs1)c1ccccc1 (stereo unspecified) | > 41.2 µg/mL |
| Cc1cccc(C(=O)Nc2cccc(C(=O)Nc3cc(C)ccn3)c2)c1 | 0.9 µg/mL (≈ 2.61 µM) |
| CSc1ccccc1C(=O)NCc1ccccc1C | > 40.7 µg/mL |
| CC(C(=O)N1CCCC1)N(c1ccccc1)S(C)(=O)=O (stereo unspecified) | > 44.5 µg/mL |
| Nc1cccc(C(=O)Nc2cccc3ncccc23)c1 | > 39.5 µg/mL |
| CC(=O)c1ccc(NC(=O)CNC2CCCCC2)cc1.Cl | 38.4 µg/mL |
| COc1ccc(OC)c(NC(=O)CS(=O)(=O)Cc2ccccc2)c1 | 3.1 µg/mL (≈ 8.87 µM) |
| Cn1c(=O)oc2cc(S(=O)(=O)NCc3ccc(C(=O)O)cc3)ccc21 | > 54.4 µg/mL |
| CCOc1ccc2nc(N/C(N)=N/S(C)(=O)=O)nc(C)c2c1 | 2.3 µg/mL (≈ 7.11 µM) |
| CCc1ccc2[nH]c(C(=O)Nc3ccc4c(c3)OCO4)cc2c1 | 0.8 µg/mL (≈ 2.59 µM) |
| Cc1cc(=O)oc2c(CN3CCCC3)c(O)ccc12 | > 38.9 µg/mL |
| CC(C)CN(C(=O)CSc1nc2ccccc2[nH]1)C1CCS(=O)(=O)C1 (stereo unspecified) | > 57.2 µg/mL |
| O=C(CN1C(=O)NC2(CCCCCC2)C1=O)Nc1ccc([N+](=O)[O-])cc1 | 13.3 µg/mL (≈ 36.9 µM) |
| O=C(NCCNC(=O)c1cc(Cl)ccc1Cl)c1ccccn1 | > 50.7 µg/mL |
| CCc1ccc(Nc2c([N+](=O)[O-])c(=O)oc3ccccc23)cc1 | 1.4 µg/mL (≈ 4.51 µM) |
| COc1ccccc1C(=O)NCCN1CCN(c2ccccc2)CC1.Cl | 52.7 µg/mL |
| CN(C)c1nc(N)ncc1-c1ccc(Oc2ccccc2)cc1 | < 0.2 µg/mL |
| Cc1cccc2sc(NS(=O)(=O)c3ccccc3)nc12 | > 45.7 µg/mL |
| NC(=O)CN1C(=O)C(=O)N(Cc2cccc(Cl)c2)C1=O | > 44.4 µg/mL |
| N#Cc1cnc(SCC(=O)N2CCCC2)nc1N | > 39.5 µg/mL |
| Nc1ncnc(N2CCc3ccccc32)c1[N+](=O)[O-] | 1.8 µg/mL (≈ 7 µM) |
| Cc1ccccc1C(=O)OCC(=O)Nc1cccc(S(=O)(=O)NC2=NCCC2)c1 | > 62.3 µg/mL |
| CC(=O)Oc1ccccc1C(=O)N(C1CCCCC1)C1CCCCC1 | 44.5 µg/mL (≈ 130 µM) |
| Cc1cccc(/C(N)=N/OC(=O)c2ccoc2C)c1 | 38 µg/mL (≈ 147 µM) |
| Cc1ccc(S(=O)(=O)NC(=O)c2ccccc2F)cc1 | > 44 µg/mL |

Continued, values first:

| solubility kinetic | Structure (SMILES) |
| --- | --- |
| 44 µg/mL (≈ 134 µM) | Cc1onc(-c2ccccc2)c1CNS(=O)(=O)c1ccccc1 |
| 7.2 µg/mL (≈ 25.1 µM) | CC(=O)Cn1cnc2c(sc3nc(C)cc(C)c32)c1=O |
| 3.2 µg/mL (≈ 10.2 µM) | CC(C)c1ccc(NC(=O)C2C3C=CC(CC3)C2C(=O)O)cc1 (stereo unspecified) |
| 33.7 µg/mL (≈ 124 µM) | CCc1ccc(NC(=O)CSc2ccccn2)cc1 |
| 2.5 µg/mL (≈ 7.01 µM) | CN(C)c1ccc(NC(=O)CN2CCN(c3ccc(F)cc3)CC2)cc1 |
| > 45.6 µg/mL | CC(CN1CCCC1)OC(=O)c1ccccc1Cl.Cl (stereo unspecified) |
| 7.2 µg/mL (≈ 31.8 µM) | Cc1cc(N2CCCC2)nc2c(C)cccc12 |
| 34.6 µg/mL (≈ 139 µM) | O=C(O)c1cccc(OCCN2CCCC2=O)c1 |
| 45.8 µg/mL (≈ 149 µM) | CC(=O)c1ccc(S(=O)(=O)N2CCN(CC#N)CC2)cc1 |
| > 53.5 µg/mL | Cn1c(N)c(C(C[N+](=O)[O-])c2c(F)cccc2Cl)c(=O)n(C)c1=O (stereo unspecified) |
| > 44.1 µg/mL | O=C(NCC(O)c1ccc([N+](=O)[O-])cc1)C1=COCCO1 (stereo unspecified) |
| 6.1 µg/mL (≈ 23.6 µM) | O=C(NCCc1ccc(F)cc1)Nc1ccccc1 |
| 32.8 µg/mL (≈ 110 µM) | CCCCCCc1c(O)nc(SCCN(C)C)[nH]c1=O |
| > 49.1 µg/mL | CCCN1C2CCCC1CC(NC(=S)NCCCOCC)C2 (stereo unspecified) |
| > 30.6 µg/mL | Cc1noc2ncnc(N3CCCC3)c12 |
| > 50.6 µg/mL | CC[C@H](C)[C@H](NC(N)=O)C(=O)NCCc1ccc(OC)c(OC)c1 |
| > 48.1 µg/mL | OC(C#CCN1CCCCCC1)(c1ccccc1)c1cccnc1 (stereo unspecified) |
| 3.1 µg/mL (≈ 8.46 µM) | Cc1ccc(S(N)(=O)=O)cc1NC(=O)c1ccc2c3c(cccc13)CC2 |

| solubility kinetic | Structure (SMILES) |
| --- | --- |
| 17.2 µg/mL (≈ 53.2 µM) | Clc1cccc(Cl)c1CN1CCN(c2ncccn2)CC1 |
| 5 µg/mL (≈ 16 µM) | S=C(NCc1ccco1)Nc1ccc(Br)cn1 |
| > 25.6 µg/mL | Fc1cc2[nH]cnc2cc1Cl |
| 32 µg/mL (≈ 118 µM) | Brc1ccccc1OCCN1CCCC1 |
| 1 µg/mL (≈ 3.37 µM) | COc1ccccc1-n1cc(-c2ccc(C)cc2)[nH]c1=S |
| 5.8 µg/mL (≈ 13.3 µM) | O=C(NCC(c1ccc(F)cc1)N1CCOCC1)c1ccc(OCc2ccccc2)cc1 (stereo unspecified) |
| 6.1 µg/mL (≈ 25.2 µM) | CCc1ccccc1NC(=O)Nc1cnccn1 |
| 43.3 µg/mL (≈ 129 µM) | O=C(O)c1ccccc1Nc1cc(Cl)c2nonc2c1[N+](=O)[O-] |
| 17.3 µg/mL (≈ 63.3 µM) | O=C(COc1ccccc1[N+](=O)[O-])Nc1cccnc1 |
| 2.8 µg/mL (≈ 6.2 µM) | Cc1ccc(S(=O)(=O)N2CCCCC2)cc1C(=O)NCc1ccc(S(N)(=O)=O)cc1 |
| > 42.5 µg/mL | Cc1ccccc1-c1noc(CNC(=O)c2ccco2)n1 |
| > 49.4 µg/mL | O=C(COC(=O)CC1CCS(=O)(=O)C1)Nc1ccc(F)cc1 (stereo unspecified) |
| 18.6 µg/mL (≈ 72 µM) | CCc1ccc(/C=C2/C(=O)NC(=O)N2C(C)=O)cc1 |
| < 0.7 µg/mL | COc1ccc(CCNC(=O)c2cc3ccccc3oc2=O)cc1 |
| 1.1 µg/mL (≈ 3.6 µM) | Cc1sc(NC(=S)NC(=O)c2ccco2)c(C#N)c1C |
| > 46 µg/mL | CCC(C)NC(=O)C1CC(=O)N(CCc2ccc(F)cc2)C1 (stereo unspecified) |
| > 45.1 µg/mL | O=C(Cc1c(F)cccc1Cl)NCCN1CCOCC1 |
| 8.5 µg/mL (≈ 27.4 µM) | Cc1ccc(NC(=O)C2CCCN(c3ncccn3)C2)c(C)c1 (stereo unspecified) |
